In ChEMBL document CHEMBL1201862, “PubChem BioAssay data set” (2004):
The source made the active and inactive calls.

Key:
[1] = target: T1, RNA-binding protein pos-1 (Caenorhabditis elegans, UniProt G5EF15); experiment: disruptors of C. elegans POS-1 RNA interaction – biochemical, fluorescence polarization, dose response (AID 1964);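 further: purified POS-1 fused to maltose binding protein made in E. coli; potency of compounds blocking POS-1 binding to fluorescent RNA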
T1 sequence (G5EF15 whole entry): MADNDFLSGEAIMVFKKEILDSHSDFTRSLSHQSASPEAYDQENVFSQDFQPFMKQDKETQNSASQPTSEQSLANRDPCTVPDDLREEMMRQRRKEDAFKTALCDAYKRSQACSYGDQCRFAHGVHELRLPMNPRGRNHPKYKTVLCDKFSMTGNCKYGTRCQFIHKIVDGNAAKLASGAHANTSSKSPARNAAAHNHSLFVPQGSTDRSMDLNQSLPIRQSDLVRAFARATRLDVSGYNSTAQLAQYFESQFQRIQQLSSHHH

[2] = target: T2, Zinc finger protein mex-5 (Caenorhabditis elegans, UniProt Q9XUB2); experiment: potency of MEX-5 RNA-binding blockers – biochemical, C. elegans, fluorescence polarization, dose response (AID 1960)
T2 sequence (Q9XUB2 whole entry): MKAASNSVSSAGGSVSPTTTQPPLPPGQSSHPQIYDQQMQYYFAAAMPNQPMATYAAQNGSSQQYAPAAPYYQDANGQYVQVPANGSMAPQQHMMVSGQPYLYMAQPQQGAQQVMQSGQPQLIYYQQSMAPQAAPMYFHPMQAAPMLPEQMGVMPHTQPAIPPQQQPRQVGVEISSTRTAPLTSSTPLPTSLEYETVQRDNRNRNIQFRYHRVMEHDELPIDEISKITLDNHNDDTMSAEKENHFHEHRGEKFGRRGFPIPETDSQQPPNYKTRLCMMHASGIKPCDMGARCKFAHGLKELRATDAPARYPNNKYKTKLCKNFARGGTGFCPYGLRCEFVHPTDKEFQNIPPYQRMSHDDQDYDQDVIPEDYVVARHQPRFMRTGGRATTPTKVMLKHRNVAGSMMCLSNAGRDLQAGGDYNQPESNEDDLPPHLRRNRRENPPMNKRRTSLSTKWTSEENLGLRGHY

Protein skinhead-1 = target: T3, Protein skinhead-1 (Caenorhabditis elegans, UniProt P34707); type: functional
T3 sequence (P34707 whole entry): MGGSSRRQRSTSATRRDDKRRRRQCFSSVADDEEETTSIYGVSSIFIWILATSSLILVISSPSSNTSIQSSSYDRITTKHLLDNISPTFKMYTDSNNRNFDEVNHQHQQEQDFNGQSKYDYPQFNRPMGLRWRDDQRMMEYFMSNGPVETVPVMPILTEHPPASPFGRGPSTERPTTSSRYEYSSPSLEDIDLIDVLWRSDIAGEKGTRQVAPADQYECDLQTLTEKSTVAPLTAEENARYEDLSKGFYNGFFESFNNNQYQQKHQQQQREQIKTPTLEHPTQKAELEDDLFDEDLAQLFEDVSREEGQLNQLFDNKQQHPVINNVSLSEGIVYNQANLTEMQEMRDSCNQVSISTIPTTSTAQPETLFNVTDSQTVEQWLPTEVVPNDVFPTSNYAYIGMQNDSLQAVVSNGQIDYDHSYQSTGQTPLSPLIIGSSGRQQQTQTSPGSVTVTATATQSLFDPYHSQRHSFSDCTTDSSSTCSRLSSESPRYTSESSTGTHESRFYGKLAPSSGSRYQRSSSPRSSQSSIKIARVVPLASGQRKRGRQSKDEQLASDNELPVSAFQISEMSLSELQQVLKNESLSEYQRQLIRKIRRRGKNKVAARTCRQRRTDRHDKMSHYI

[3] = viability of PTEN-deleted HCT116 cells – cell-based, HCT116 PTEN knockout, dose response (AID 1047); type: functional;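 further: HCT116 colon tumor cells with PTEN knocked out; cells exposed to compound for 60 hours before readout; potency for loss of cell viability measured by luminescence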
[4] = viability of HCT116 lacking mutant beta-catenin – cell-based, human colon tumor, dose response (AID 1045); type: functional;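 further: HCT116 colon tumor cells with beta catenin knocked out; cells exposed to compound for 60 hours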
[5] = Luminescence Cell-Based Dose Retest to Confirm Inhibitors of Cancer Stem Cells. [Related pubchem assays (depositor defined):AID2717, AID2721]; type: functional; settings: Homo sapiens
[6] = target: T4, Rac GTPase-activating protein 1 (Homo sapiens, UniProt Q9H0H5); experiment: blockers of MgcRacGAP-driven Rac1 GTP hydrolysis – biochemical, ADP Hunter fluorescence, primary and confirmatory, confirmation (AID 624330); type: functional
T4 sequence (Q9H0H5 whole entry): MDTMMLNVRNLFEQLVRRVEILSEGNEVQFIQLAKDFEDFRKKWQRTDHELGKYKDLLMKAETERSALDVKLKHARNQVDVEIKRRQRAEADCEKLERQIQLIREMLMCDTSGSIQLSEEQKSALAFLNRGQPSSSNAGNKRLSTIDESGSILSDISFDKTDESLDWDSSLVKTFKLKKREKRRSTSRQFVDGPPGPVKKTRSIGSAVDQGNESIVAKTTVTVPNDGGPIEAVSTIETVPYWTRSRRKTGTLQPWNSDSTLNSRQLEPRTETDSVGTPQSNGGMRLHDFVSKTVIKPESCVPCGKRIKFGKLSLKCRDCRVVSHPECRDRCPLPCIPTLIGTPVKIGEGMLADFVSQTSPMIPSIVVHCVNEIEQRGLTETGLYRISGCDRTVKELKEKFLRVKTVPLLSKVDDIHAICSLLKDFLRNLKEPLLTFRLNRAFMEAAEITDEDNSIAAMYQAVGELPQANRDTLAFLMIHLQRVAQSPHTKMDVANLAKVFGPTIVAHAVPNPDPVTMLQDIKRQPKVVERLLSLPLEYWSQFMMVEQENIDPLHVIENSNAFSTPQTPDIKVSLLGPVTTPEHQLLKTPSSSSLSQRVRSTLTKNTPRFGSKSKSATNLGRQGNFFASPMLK

[7] = Luminescence Cell-Based Dose Response HTS to Identify Activators of Luciferase Translation or Activity in H4 […] Cells. [Related pubchem assays: 1829 (Project Summary), 1814 (Primary HTS)]; type: functional
H4 = experiment: Luminescence Cell-Based Dose Response HTS to Identify Activators of 5'UTR Stem-Loop Driven Prion Protein mRNA Translation in H4 Neuroglioblastoma Cells. [Related pubchem assays: 1829 (Project Summary), 1814 (Primary HTS)]; type: functional; settings: Homo sapiens
Cytochrome P450 2D6 = Cytochrome P450 2D6 (Homo sapiens, UniProt P10635);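 further: CYP2D6 member of a cytochrome P450 panel assay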
Cytochrome P450 2D6, sequence (P10635 whole entry): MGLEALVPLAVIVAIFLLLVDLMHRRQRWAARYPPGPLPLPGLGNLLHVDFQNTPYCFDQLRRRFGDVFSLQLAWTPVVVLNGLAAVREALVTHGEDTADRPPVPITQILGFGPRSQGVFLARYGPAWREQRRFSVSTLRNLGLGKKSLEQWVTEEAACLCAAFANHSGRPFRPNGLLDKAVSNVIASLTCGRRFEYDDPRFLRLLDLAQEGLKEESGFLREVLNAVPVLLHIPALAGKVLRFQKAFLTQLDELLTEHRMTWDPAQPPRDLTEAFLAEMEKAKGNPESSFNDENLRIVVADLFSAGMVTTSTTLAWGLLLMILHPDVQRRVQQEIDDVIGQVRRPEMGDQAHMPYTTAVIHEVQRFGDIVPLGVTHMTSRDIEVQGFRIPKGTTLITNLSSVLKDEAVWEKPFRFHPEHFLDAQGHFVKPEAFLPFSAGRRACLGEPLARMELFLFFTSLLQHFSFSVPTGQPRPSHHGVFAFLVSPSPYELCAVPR

[8] = NIH-3T3 fibroblast cytotoxicity, dose response, cytotoxicity control, cell-based, fluorescence, Alamar Blue, secondary assay (AID 2327); type: functional;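 further: NIH-3T3 mouse fibroblasts cultured with fluconazole at 8 µg/mL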
[9] = Trypanosoma cruzi growth suppression in host cells – NIH3T3 host cells, beta-gal luminescence, confirmation (AID 2044); type: functional, cell-based;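 further: intracellular parasites grown in NIH/3T3 mouse fibroblasts as host cells; luminescent beta-galactosidase reporter signal from transgenic T. cruzi replicating inside host cells; inhibitors lower the luminescence signal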
[10] = NIH3T3 cell viability loss – ATP luminescence, mouse fibroblasts, counter-screen, dose response (AID 2010); type: functional, cell-based;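 further: cells exposed to compound for about 90 hours before reading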
[11] = system: Streptococcus sp. 'group A'; experiment: Streptococcus pyogenes SK(-)GAS viability under kanamycin – luminescence, BacTiterGlo, confirmation, counter-screen for streptokinase expression inhibitor project, dose response (AID 1900); type: functional, organism-based
Streptokinase A = target: T5, Streptokinase A (Streptococcus pyogenes serotype M1, UniProt P10520); experiment: viability-normalized secreted streptokinase activity reduction – plasminogen activation absorbance, OD405, dose response (AID 1914); type: functional, Streptococcus pyogenes M1 GAS;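 further: secreted streptokinase activity via plasminogen activation per viability signal from cell pellet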
T5 sequence (P10520 whole entry): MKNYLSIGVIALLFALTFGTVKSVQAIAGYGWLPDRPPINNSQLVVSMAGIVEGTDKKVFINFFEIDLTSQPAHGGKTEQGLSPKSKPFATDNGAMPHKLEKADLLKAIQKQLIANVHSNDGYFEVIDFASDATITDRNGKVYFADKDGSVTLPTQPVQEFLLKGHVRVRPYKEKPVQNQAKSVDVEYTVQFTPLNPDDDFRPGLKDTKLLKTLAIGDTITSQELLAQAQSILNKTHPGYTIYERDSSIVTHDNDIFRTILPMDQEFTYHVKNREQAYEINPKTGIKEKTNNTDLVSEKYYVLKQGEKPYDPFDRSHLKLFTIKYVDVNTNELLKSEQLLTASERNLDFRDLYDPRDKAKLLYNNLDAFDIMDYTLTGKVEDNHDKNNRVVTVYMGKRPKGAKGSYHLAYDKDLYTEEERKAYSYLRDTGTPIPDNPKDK

Streptococcus = experiment: GAS UMAA2166 growth inhibition – luminescence, BacTiterGlo, counter-screen for streptokinase expression inhibitor project, dose response (AID 1915); type: functional, organism-based;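 further: potency for reduction of bacterial viability or growth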
cells = type: functional

Cc1ccc2[nH]c(C)c(/C=C3/C(=N)N4N=C(CC(=O)N5CCOCC5)SC4=NC3=O)c2c1
EC50 [1]: 38.3 µM (active)
EC50 [2]: > 300 µM (inconclusive)
IC50 (Protein skinhead-1): > 100 µM (inactive)

COc1ccc(-c2csc(NC(=S)NC(=O)/C=C/c3ccco3)n2)cc1OC
EC50 [3]: 1.62 µM (active)
EC50 [4]: 3.11 µM (active)
AC50 [5]: 0.853 µM (active)

Clc1ccc(-c2cn3cc(Br)ccc3n2)cc1Cl
IC50 (Protein skinhead-1): > 100 µM (inactive)

Cc1ccc(C)c(NS(=O)(=O)c2ccc3c(c2)Cc2cc(S(=O)(=O)Nc4cc(C)ccc4C)ccc2-3)c1
EC50 [3]: 9.63 µM (active)
EC50 [4]: 11.2 µM (active)

CC(C)c1ccc(C(=O)Nc2ccc(CN3CCOCC3)cc2)cc1
IC50 (Protein skinhead-1): 3.18 µM (active)

CN(C)C(CNC(=O)CCc1nc2cc(Cl)ccc2n(Cc2ccccc2)c1=O)c1ccccc1 (stereo not given)
IC50 (Protein skinhead-1): 58.1 µM (inactive)

CCCSc1nc(O)c2cnn(-c3ccc(C)cc3)c2n1
EC50 [3]: 22.2 µM (active)
EC50 [4]: 20.7 µM (active)

Nc1ccc(C(=O)N/N=C/c2ccc(N3CCOCC3)s2)cc1
IC50 [6]: 16.5 µM (active)

CCn1c(CC(=O)Nc2ccc(C)c(Cl)c2)nnc1SCC(=O)Nc1nc(C)cs1
EC50 [3]: 25.4 µM (active)
EC50 [4]: 27.2 µM (active)

O=C(COc1ccccc1F)N/N=C1\CCCc2ccccc21
EC50 [7]: 24.8 µM (active)
EC50 (H4): 53.3 µM (inconclusive)

O=C(Nc1csc(Cl)c1)c1ccccc1
IC50 (Protein skinhead-1): > 100 µM (inactive)

CC1=NNC(=O)C1Br (stereo not given)
IC50 [6]: 55.9 µM (active)

Cc1ccc(OCc2ccc(C(=O)Nc3nccs3)o2)cc1C
IC50 (Protein skinhead-1): > 100 µM (inactive)
AC50 (Cytochrome P450 2D6): 15.8 µM (inconclusive)

O=C(NCc1cccnc1)NC1(C(F)(F)F)Oc2ccccc2O1
EC50 [3]: 25.1 µM (active)
EC50 [4]: 23.3 µM (active)

CC(C)C(CCNCc1ccccn1)c1ccc(Cl)cc1 (stereo not given)
IC50 (Protein skinhead-1): > 100 µM (inactive)

O=C(Nc1cc2c3c(c1)C1CCCC1CN3CC1CCCC21)c1ccccc1 (stereo not given)
EC50 [8]: > 160 µM (inactive)
EC50 [9]: 0.78 µM (active)
EC50 [10]: > 60 µM (not active)

COc1cc(SC)ccc1C(=O)Nc1nccs1
IC50 (Protein skinhead-1): 53.6 µM (inactive)

COc1cccc(C(=O)OCC(=O)Nc2nnc(-c3ccccc3)o2)c1
EC50 [11]: 7.55 µM (active)
EC50 (Streptokinase A): > 150 µM (not active)
EC50 (Streptococcus): 60.9 µM (active)
IC50 (cells): 14.8 µM (active)

CCN(CC)c1ccc(S(=O)(=O)N2CCOCC2)cc1NC(=O)COC(=O)/C=C/c1ccc(O)c(OC)c1
IC50 [6]: 108 µM (active)

O=[N+]([O-])c1ccc(COc2ccc(CN3CCCC3)cc2)cc1
IC50 (Protein skinhead-1): 3.75 µM (active)

COc1c(C(=O)Nc2nccs2)ccc2ccccc12
IC50 (Protein skinhead-1): 17.1 µM (active)

COc1ccccc1N1CCN(CCCOc2ccc(F)cc2)CC1
IC50 [6]: 122 µM (active)

COc1ccc(-c2cc3ccccc3n2CC(O)CN2CCCCC2)cc1 (stereo not given)
IC50 [6]: 110 µM (active)

CCc1nc2c(OCc3ccc(C(F)(F)F)cc3)cccn2c1N(C)C(=O)c1ccncc1
IC50 (Protein skinhead-1): 4.62 µM (active)

Cc1noc(C)c1S(=O)(=O)N1CCCC(C(=O)NCCc2ccc(Cl)cc2)C1 (stereo not given)
IC50 (Protein skinhead-1): > 100 µM (inactive)

Nc1ccccc1Nc1ccccc1
IC50 (cells): 1.28 µM (active)
IC50 [6]: 36.1 µM (active)

Cn1cc(C(=O)NCCN2CCN(c3cccc(Cl)c3)CC2)c2c3ccccc3n(C)c2c1=O
EC50 [3]: 46.8 µM (active)
EC50 [4]: 63 µM (active)

c1ccc(CSc2nnc(-c3c[nH]c4ccccc34)o2)cc1
EC50 [7]: 28.7 µM (active)
EC50 (H4): 70.2 µM (active)

O=C1CCC(C(=O)OCC(=O)N2N=C3/C(=C\c4ccccc4)CCCC3C2c2ccccc2)N1 (stereo not given)
IC50 (Protein skinhead-1): > 100 µM (inactive)

CN1/C(=C/C=N/NC(=O)c2ccc([N+](=O)[O-])cc2)C(C)(C)c2ccccc21
EC50 [3]: 24.3 µM (active)
EC50 [4]: 23.2 µM (active)

Cc1ccc(-n2c(=S)[nH]c3sc4c(c3c2=O)CCC4)cc1
IC50 [6]: 85.6 µM (active)

CCCCn1c(S)nc2c(=O)n(C)c(=O)n(C)c21
IC50 [6]: 20.9 µM (active)

COc1cc(/C=N/NC(=O)C(=O)Nc2ccccn2)ccc1O
IC50 [6]: 22.6 µM (active)

CCOc1cc(N2CCOCC2)c(OCC)cc1NC(=O)Cc1ccccc1OC
EC50 [3]: 23.9 µM (active)
EC50 [4]: 21.2 µM (active)

COc1ccc(NC2CCCN(C(=O)CCC3=NNC(=O)CC3)C2)cc1 (stereo not given)
IC50 [6]: 126 µM (active)
